ChEMBL document CHEMBL4414659, “Chemical Constituents from the Aerial Parts of Agastache rugosa and Their Inhibitory Activities on Prostaglandin E2 Production in Lipopolysaccharide-Treated RAW 264.7 Macrophages” (J Nat Prod, 2019)

System: RAW264.7
Test: Antiinflammatory activity against LPS-stimulated mouse RAW264.7 cells assessed as decrease in PGE2 production preincubated for 1 hr followed by LPS stimulation and measured after 24 hrs by ELISA
Assay type: functional, cell-based

SMILES | IC50 [µM]
C=CCc1ccc(O[C@@H]2O[C@H](CO)[C@@H](O)[C@H](O)[C@H]2O)cc1 | 18.3
C=CCc1ccc(O[C@@H]2O[C@H](CO)[C@@H](O)[C@H](O)[C@H]2O)c(O)c1 | 3.2
CC1=CC(=O)CC(C)(C)[C@H]1/C=C/[C@@H](C)O[C@@H]1O[C@H](CO)[C@@H](O)[C@H](O)[C@H]1O | 16.8
COc1ccc(-c2cc(=O)c3c(O)cc(O[C@@H]4O[C@H](COC(=O)CC(=O)O)[C@@H](O)[C@H](O)[C@H]4O)cc3o2)cc1 | 18.7
COc1cc(/C=C/C(=O)OC[C@H]2O[C@@H](OCC/C=C\C[C@H]3C(=O)CC[C@@H]3CC(=O)O)[C@H](O)[C@@H](O)[C@@H]2O)ccc1O | > 50
C=CCc1ccc(O)c(O[C@@H]2O[C@H](CO)[C@@H](O)[C@H](O)[C@H]2O)c1 | 4.1
COc1ccc(-c2cc(=O)c3c(O)cc(O[C@@H]4O[C@H](CO)[C@@H](O)[C@H](OC(C)=O)[C@H]4O)cc3o2)cc1 | > 50
COc1ccc(-c2cc(=O)c3c(O)cc(O[C@@H]4O[C@H](CO)[C@@H](O)[C@H](O)[C@H]4OC(C)=O)cc3o2)cc1 | 4.7
COc1cc(/C=C/C(=O)OC[C@H]2O[C@@H](Oc3ccccc3C(=O)O)[C@H](O)[C@@H](O)[C@@H]2O)ccc1O | 33.9
C=CCc1ccc(O[C@@H]2O[C@H](COC(=O)CC(=O)OC)[C@@H](O)[C@H](O)[C@H]2O)cc1 | 14.3
COc1ccc([C@@H]2CC(=O)c3c(O)cc(O[C@@H]4O[C@H](CO)[C@@H](O)[C@H](O)[C@H]4O)cc3O2)cc1 | > 50
C=CCc1ccc(O[C@@H]2O[C@H](COC(C)=O)[C@@H](O)[C@H](O)[C@H]2O)cc1 | 48.8
COc1ccc(-c2cc(=O)c3c(O)cc(O[C@@H]4O[C@H](COC(=O)CC(=O)O)[C@@H](O)[C@H](OC(C)=O)[C@H]4O)cc3o2)cc1 | 16.8
COc1ccc(-c2cc(=O)c3c(O)cc(O[C@@H]4O[C@H](COC(=O)CC(=O)O)[C@@H](O)[C@H](O)[C@H]4OC(C)=O)cc3o2)cc1 | 28.8
COc1ccc(-c2cc(=O)c3c(O)cc(O[C@@H]4O[C@H](CO)[C@@H](O)[C@H](O)[C@H]4O)cc3o2)cc1O | > 50
COc1ccc(-c2cc(=O)c3c(O)cc(O)cc3o2)cc1 [ACACETIN] | 6.2

SMILES | IC50 [µM]
O=c1cc(-c2ccc(O)cc2)oc2cc(O)cc(O)c12 [APIGENIN] | 13.4
O=c1cc(-c2ccc(O)cc2)oc2cc(O[C@@H]3O[C@H](CO)[C@@H](O)[C@H](O)[C@H]3O)cc(O)c12 [APIGETRIN] | > 50
C=CCc1ccc(O[C@@H]2O[C@H](CO)[C@@H](O)[C@H](O)[C@H]2O)c(OC)c1 [CITRUSIN C] | 1.7
COc1ccc(-c2cc(=O)c3c(O)cc(O)cc3o2)cc1O [DIOSMETIN] | 8.4
CCOC(=O)/C=C/c1ccc(O)c(O)c1 [ETHYL CAFFEATE] | 2
CCOC(=O)[C@@H](Cc1ccc(O)c(O)c1)OC(=O)/C=C/c1ccc(O)c(O)c1 [ETHYL ROSMARINATE] | 4.3
O=c1cc(-c2ccc(O)c(O)c2)oc2cc(O[C@@H]3O[C@H](CO)[C@@H](O)[C@H](O)[C@H]3O)cc(O)c12 [GALUTEOLIN] | 6.1
O=c1cc(-c2ccc(O)c(O)c2)oc2cc(O)cc(O)c12 [LUTEOLIN] | 8.1
COC(=O)[C@@H](Cc1ccc(O)c(O)c1)OC(=O)/C=C/c1ccc(O)c(O)c1 [METHYL ROSMARINATE] | 11.3
COC(=O)/C=C/c1ccc(O)c(O)c1 [METHYLCAFFEATE] | 3.9
O=C(/C=C/c1ccc(O)c(O)c1)O/C=C\c1ccc(O)c(O)c1 [NEPETOIDIN B] | 3.8
CS(=O)(=O)Nc1ccc([N+](=O)[O-])cc1OC1CCCCC1 [NS-398] | 0.0067
O=C(CCc1ccc(O)cc1)c1c(O)cc(O)cc1O[C@@H]1O[C@H](CO)[C@@H](O)[C@H](O)[C@H]1O [PHLORIZIN] | 14.6
O=C(/C=C/c1ccc(O)c(O)c1)O[C@H](Cc1ccc(O)c(O)c1)C(=O)O [ROSMARINIC ACID] | 34.2
COc1ccc(-c2cc(=O)c3c(O)cc(O[C@@H]4O[C@H](CO)[C@@H](O)[C@H](O)[C@H]4O)cc3o2)cc1 [TILIANINE] | 7.4
COc1ccc(C(=O)O)cc1 [p-ANISIC ACID] | > 50
